Earlier results in patent US5866539A, “Method for the control of antibiotic-resistant gram positive bacteria and treatment of infection” (AMBI Inc., priority 1996, dated 1999).
Where no end group is shown, it is not given here.

Test system: staphylococci and enterococci
Details: compared to currently used therapeutic agents

| Substance | activity towards staphylococci and enterococci |
| --- | --- |
| mersacidin (CTFTLPGGGGVCTLTSECIC; also: lantibiotic thioether rings, places not given here; UniProt P43683 49-68, looked up) [more recent lanthionine-containing antimicrobial peptide evaluated in the literature] | only moderate activity |
| Actagardine | only moderate activity |
